Test results published in the supplement of paper PMC10307832.

Columns and labels:
Assay in all cases: relative viability (nuclei count vs DMSO), 5 days (fraction); higher = more cells survive
[1] = compound: O=C(O)c1ccc2c(c1)nc(Nc1cccc(Cl)c1)c1ccncc12 [Silmitasertib] + CCNC(=O)c1noc(-c2cc(C(C)C)c(O)cc2O)c1-c1ccc(CN2CCOCC2)cc1 [Luminespib] (partner 0.01 µM)
Summary of the method: (§1)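 For relative viability, nuclei counts in treated wells were divided by those in vehicle wells. Lung cancer cell lines had been pin-tool dosed in 1536-well plates the day after seeding and cultured for 5 days, then fixed and stained in one step (final 0.05% Triton X-100, 1% formaldehyde, 1 ug/ml Hoechst) and imaged at 4×. Doses were one drug alone or a fixed anchor-drug dose plus five library-drug doses (not always all listed) in √10 steps, and values are duplicate-plate medians.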

[2] = compound: O=C(O)c1ccc2c(c1)nc(Nc1cccc(Cl)c1)c1ccncc12 [Silmitasertib] + Nc1ncn([C@H]2C[C@H](O)[C@@H](CO)O2)c(=O)n1 [Decitabine] (partner 2 µM)
Summary of the method: as §1

[3] = compound: O=C(O)c1ccc2c(c1)nc(Nc1cccc(Cl)c1)c1ccncc12 [Silmitasertib] + CC1(C)CCC(c2ccc(Cl)cc2)=C(CN2CCN(c3ccc(C(=O)NS(=O)(=O)c4ccc(N[C@H](CCN5CCOCC5)CSc5ccccc5)c(S(=O)(=O)C(F)(F)F)c4)cc3)CC2)C1 [Navitoclax] (partner 0.5 µM)
Summary of the method: as §1

[4] = compound: O=C(O)c1ccc2c(c1)nc(Nc1cccc(Cl)c1)c1ccncc12 [Silmitasertib] + CC(=O)Nc1cccc(-n2c(=O)n(C3CC3)c(=O)c3c(Nc4ccc(I)cc4F)n(C)c(=O)c(C)c32)c1 [Trametinib] (partner 0.02 µM)
Summary of the method: as §1

Silmitasertib + AZD7762 = compound: O=C(O)c1ccc2c(c1)nc(Nc1cccc(Cl)c1)c1ccncc12 [Silmitasertib] + NC(=O)Nc1cc(-c2cccc(F)c2)sc1C(=O)N[C@H]1CCCNC1 [AZD7762] (partner 0.2 µM)
Summary of the method: as §1

| Cell Line | relative viability ([1]; first compound 0.04 µM) | relative viability ([1]; first compound 0.4 µM) | relative viability ([1]; first compound 1.265 µM) | relative viability ([1]; first compound 4 µM) | relative viability ([2]; first compound 0.04 µM) | relative viability ([2]; first compound 0.4 µM) | relative viability ([2]; first compound 1.265 µM) | relative viability ([2]; first compound 4 µM) | relative viability ([3]; first compound 0.04 µM) | relative viability ([3]; first compound 0.4 µM) | relative viability ([3]; first compound 1.265 µM) | relative viability ([3]; first compound 4 µM) | relative viability ([4]; first compound 0.04 µM) | relative viability ([4]; first compound 0.4 µM) | relative viability ([4]; first compound 1.265 µM) | relative viability ([4]; first compound 4 µM) | relative viability (Silmitasertib + AZD7762; first compound 0.04 µM) | relative viability (Silmitasertib + AZD7762; first compound 0.4 µM) | relative viability (Silmitasertib + AZD7762; first compound 1.265 µM) | relative viability (Silmitasertib + AZD7762; first compound 4 µM) |
| --- | --- | --- | --- | --- | --- | --- | --- | --- | --- | --- | --- | --- | --- | --- | --- | --- | --- | --- | --- | --- |
| LOU-NH91 | 0.355 | 0.301 | 0.264 | 0.248 | 0.876 | 0.801 | 0.754 | 0.782 | 0.852 | 0.596 | 0.549 | 0.464 | 0.786 | 0.771 | 0.722 | 0.731 | 0.785 | 0.745 | 0.621 | 0.594 |
| LU99A | 0.272 | 0.361 | 0.259 | 0.201 | 0.824 | 0.837 | 0.808 | 0.605 | 0.911 | 0.735 | 0.622 | 0.546 | 0.5 | 0.549 | 0.38 | 0.461 | 0.339 | 0.382 | 0.276 | 0.283 |
| LXF-289 | 0.592 | – | 0.652 | 0.647 | 0.41 | – | 0.377 | 0.405 | 0.917 | – | 1.01 | 1 | 0.666 | – | 0.752 | 0.836 | 1.13 | – | 1.29 | 1.28 |
| NCI-H23 | 0.217 | 0.197 | 0.215 | 0.217 | 0.353 | 0.256 | 0.255 | 0.245 | 0.957 | – | 0.732 | 0.728 | 0.439 | 0.323 | 0.365 | 0.36 | 0.29 | 0.153 | 0.344 | 0.165 |
| NCI-H322M | 0.968 | 0.893 | 0.693 | 0.44 | 0.727 | 0.686 | 0.674 | 0.649 | 1.23 | 0.932 | 0.799 | 0.479 | 0.61 | 0.5 | 0.47 | 0.553 | 0.554 | 0.608 | 0.562 | 0.405 |
| NCI-H441 | 0.369 | – | 0.329 | 0.242 | 0.207 | – | 0.216 | 0.231 | 0.463 | – | 0.509 | 0.385 | 0.562 | – | 0.313 | 0.231 | 1.34 | – | 1.09 | 1.16 |
| NCI-H460 | 0.0354 | 0.0304 | 0.0278 | 0.0318 | 0.551 | 0.511 | 0.478 | 0.363 | 1.26 | 1.2 | 1.3 | 1.04 | 0.201 | 0.196 | 0.131 | 0.0739 | 0.608 | 0.671 | 0.759 | 0.384 |
| NCI-H596 | 0.948 | 0.843 | 0.918 | 1 | 0.909 | 1.05 | 1.05 | 0.785 | 1.09 | 0.882 | 0.902 | 0.787 | 0.765 | 0.684 | 0.764 | 0.796 | 1.04 | 1.08 | 0.953 | 0.957 |
| NCI-H647 | 0.159 | 0.268 | 0.241 | 0.133 | 0.411 | 0.387 | 0.344 | 0.288 | 1.05 | 0.826 | 0.85 | 0.57 | 0.524 | 0.57 | 0.399 | 0.431 | 0.513 | 0.364 | 0.404 | 0.19 |
| NCI-H727 | 0.332 | 0.274 | 0.404 | 0.358 | 1.09 | 0.844 | 0.544 | 0.691 | 0.425 | 0.343 | 0.365 | 0.275 | 0.415 | 0.338 | 0.328 | 0.348 | 0.773 | 0.573 | 0.654 | 0.543 |
| NCI-H838 | 0.29 | – | 0.338 | 0.217 | 0.459 | 0.427 | 0.402 | 0.341 | 1.36 | – | 1.29 | 0.929 | 0.673 | 0.489 | 0.463 | 0.309 | 0.828 | 0.864 | 1.03 | 0.951 |
| NCI-H1355 | 0.776 | – | 0.69 | 0.576 | 0.343 | – | 0.371 | 0.285 | 1.04 | – | 0.965 | 0.771 | 0.454 | – | 0.393 | 0.367 | 0.729 | – | 0.776 | 0.679 |
| NCI-H1395 | 0.635 | 0.562 | 0.539 | 0.713 | 0.756 | 0.725 | 0.684 | 0.683 | 1.2 | 0.816 | 1.1 | 0.947 | 1.07 | 0.809 | 1.03 | 1.14 | 0.425 | 0.42 | 0.421 | 0.41 |
| NCI-H1437 | 1.17 | 1.04 | 1.03 | 0.823 | 0.578 | 0.533 | 0.445 | 0.411 | 1.11 | – | 0.906 | 0.828 | 0.493 | 0.466 | 0.353 | 0.274 | 1.2 | 1.06 | 1.02 | 1.06 |
| NCI-H1651 | 0.985 | 1.01 | 0.916 | 0.71 | 0.65 | 0.542 | 0.197 | 0.692 | 1.01 | 1.06 | 1.09 | 1.02 | 0.881 | 0.714 | 0.84 | 0.848 | 0.505 | 0.449 | 0.481 | 0.675 |
| NCI-H1666 | 1.04 | 0.955 | 0.708 | 0.634 | 0.804 | 0.67 | 0.498 | 0.656 | 1.02 | 0.853 | 0.663 | 0.492 | 0.915 | 0.728 | 0.876 | 0.752 | 0.915 | 0.857 | 0.763 | 0.627 |
| NCI-H1734 | 0.185 | 0.209 | 0.186 | 0.202 | 0.613 | 0.52 | 0.536 | 0.412 | 0.884 | – | 0.781 | 0.737 | 0.737 | 0.664 | 0.63 | 0.581 | 0.555 | 0.445 | 0.544 | 0.513 |
